Experimental data from patent US20070128217A1 (priority 2003, published 2007).

Assays:
[1] = system: control sera (pooled serum of ten healthy LUMC hospital workers; commercial negative donor pooled serum from the Dutch bloodbank); assay type: binding, human; set-up: Binding of Control serum LUMC to linear peptides / Binding of Control serum Blood-bank to linear peptides / Binding of Control serum LUMC to looped peptides / Binding of Control Serum Blood-Bank to Looped peptides / Binding of Control serum LUMC to linear peptides of the protein M of SARS-CoV Urbani / Binding of Control serum Blood-bank to linear peptides of the protein M of SARS-CoV Urbani / Binding of Control serum LUMC to looped peptides of the protein M of SARS-CoV Urbani / Binding of Control Serum Blood-Bank to Looped peptides of the protein M of SARS-CoV Urbani: unit not given here
[2] = system: antibodies in sera from SARS patients (sera 1a, 1b, 2, 6, 37, 62, London, SARS-yellow, SARS-green); assay type: binding, human; set-up: Binding of serum 6 to linear peptides of protein X1 of SARS-CoV Urbani / Binding of serum 37 to linear peptides of protein X1 of SARS-CoV Urbani / Binding of serum 6 to looped/cyclic peptide (PEPSCAN-ELISA) / Binding of serum 37 to looped/cyclic peptide (PEPSCAN-ELISA) / Binding of serum 37 to looped/cyclic peptides of protein X1 of SARS-CoV Urbani / Binding of serum 6 to linear peptides of protein X2 / Binding of serum 37 to linear peptides of protein X2 / Binding of serum 37 to looped/cyclic peptides of protein X2 of SARS-CoV Urbani / Binding of serum 6 to linear peptides of protein M of SARS-CoV Urbani / Binding of serum 37 to linear peptides of protein M of SARS-CoV Urbani / Binding of serum 6 to looped/cyclic peptides of protein M of SARS-CoV Urbani / Binding of serum 37 to looped/cyclic peptides of protein M of SARS-CoV Urbani / Binding of serum 6 to linear peptides of protein X3 of SARS-CoV Urbani / Binding of serum 37 to linear peptides of protein X3 of SARS-CoV Urbani / Binding of serum 37 to looped/cyclic peptides of protein X3 of SARS-CoV Urbani / Binding of serum 6 to linear peptides of protein X4 of SARS-CoV Urbani / Binding of serum 37 to linear peptides of protein X4 of SARS-CoV Urbani / Binding of serum 37 to looped/cyclic peptides of protein X4 of SARS-CoV Urbani / Binding of serum 6 to linear peptides of protein X5 of SARS-CoV Urbani / Binding of serum 37 to linear peptides of protein X5 of SARS-CoV Urbani / Binding of serum 37 to looped/cyclic peptides of protein X5 of SARS-CoV Urbani / Binding of serum 6 to linear peptides of protein N of SARS-CoV Urbani / Binding of serum 37 to linear peptides of protein N of SARS-CoV Urbani / Binding of serum 6 to linear peptide (PEPSCAN-ELISA) / Binding of serum 1a to looped/cyclic peptides of protein N of SARS-CoV Urbani / Binding of serum 1b to looped/cyclic peptides of protein N of SARS-CoV Urbani / Binding of serum 2 to looped/cyclic peptides of protein N of SARS-CoV Urbani / Binding of serum 6 to looped/cyclic peptides of protein N of SARS-CoV Urbani / Binding of serum 37 to looped/cyclic peptides of protein N of SARS-CoV Urbani / Binding of serum 62 to looped/cyclic peptides of protein N of SARS-CoV Urbani / Binding of serum London to looped/cyclic peptides of protein N of SARS-CoV Urbani / Binding of serum SARS-green to looped/cyclic peptides of protein N of SARS-CoV Urbani: unit not given here
[3] = system: recombinant human anti-SARS-CoV antibody 03-018; assay type: binding; set-up: Binding of antibody 03-018 to linear peptides of the N protein of SARS-CoV Urbani / Binding of antibody 03-018 to looped/cyclic peptides of the N protein of SARS-CoV Urbani: unit not given here
[4] = system: rabbit serum obtained by immunizing a rabbit with the SARS-CoV strain Frankfurt 1; assay type: binding; set-up: Binding of a rabbit serum to linear peptides / Binding of a rabbit serum to looped peptides / Rabbit serum linear peptides / Rabbit serum looped peptides / Binding of a rabbit serum to linear peptides of protein N of SARS-CoV Urbani (Rabbit serum linear peptides) / Binding of a rabbit serum to looped/cyclic peptides of protein N of SARS-CoV Urbani (Rabbit serum looped peptides): unit not given here

| Sequence | Binding of Control Serum Blood-Bank to Looped peptides [1] | Binding of Control serum Blood-bank to linear peptides [1] | Binding of Control serum LUMC to linear peptides [1] | Binding of Control serum LUMC to looped peptides [1] | Binding of serum 1a to linear peptides of protein N of SARS-CoV Urbani [2] | Binding of serum 1a to looped/cyclic peptides of protein N of SARS-CoV Urbani [2] | Binding of serum 1b to linear peptides of protein N of SARS-CoV Urbani [2] | Binding of serum 1b to looped/cyclic peptides of protein N of SARS-CoV Urbani [2] | Binding of serum 2 to linear peptides of protein N of SARS-CoV Urbani [2] | Binding of serum 2 to looped/cyclic peptides of protein N of SARS-CoV Urbani [2] | Binding of serum 6 to linear peptides of protein N of SARS-CoV Urbani [2] | Binding of serum 6 to looped/cyclic peptides of protein N of SARS-CoV Urbani [2] | Binding of serum 37 to linear peptides of protein N of SARS-CoV Urbani [2] | Binding of serum 37 to looped/cyclic peptides of protein N of SARS-CoV Urbani [2] | Binding of serum 62 to linear peptides of protein N of SARS-CoV Urbani [2] | Binding of serum 62 to looped/cyclic peptides of protein N of SARS-CoV Urbani [2] | Binding of serum London to linear peptides of protein N of SARS-CoV Urbani [2] | Binding of serum London to looped/cyclic peptides of protein N of SARS-CoV Urbani [2] | Binding of serum SARS-green to linear peptides of protein N of SARS-CoV Urbani [2] | Binding of serum SARS-yellow to linear peptides of protein N of SARS-CoV Urbani [2] | further results |
| --- | --- | --- | --- | --- | --- | --- | --- | --- | --- | --- | --- | --- | --- | --- | --- | --- | --- | --- | --- | --- | --- |
| PNNNAATVLQLPQGT | 0.9 | 0.6 | 0.6 | 0.8 | 0.2 | 0.5 | 0.1 | 0.4 | 0.2 | 0.8 | 0.1 | 0.3 | 0.6 | 1.0 | 0.6 | 0.9 | 0.5 | 0.7 | 0.3 | 0.7 | Binding of serum SARS-green to looped/cyclic peptides of protein N of SARS-CoV Urbani [2]: 0.7; Binding of serum SARS-yellow to looped/cyclic peptides of protein N of SARS-CoV Urbani [2]: 0.5; Binding of antibody 03-018 to linear peptides of the N protein of SARS-CoV Urbani [3]: 0.1; Binding of antibody 03-018 to looped/cyclic peptides of the N protein of SARS-CoV Urbani [3]: 0.3; Binding of a rabbit serum to linear peptides of protein N of SARS-CoV Urbani (Rabbit serum linear peptides) [4]: 0.0; Binding of a rabbit serum to looped/cyclic peptides of protein N of SARS-CoV Urbani (Rabbit serum looped peptides) [4]: 0.2 |
| PQRQKKQPTVTLLPA | – | – | – | – | 0.3 | – | 0.2 | – | 0.3 | – | 0.2 | – | 0.7 | – | 0.7 | – | 0.5 | – | 0.5 | 0.6 | Control Serum Blood-Bank Looped peptides [1]: 0.9; Control serum Blood-bank linear peptides [1]: 0.8; Control serum LUMC linear peptides [1]: 0.7; Control serum LUMC looped peptides [1]: 0.7; Recognition of the peptide by sera of SARS-CoV infected individuals, and form (linear, looped/cyclic) in which it is recognized [2]: recognized in looped/cyclic form; Binding of antibody 03-018 to linear peptides of the N protein of SARS-CoV Urbani [3]: 0.1; Binding of antibody 03-018 to looped/cyclic peptides of the N protein of SARS-CoV Urbani [3]: 0.3; Binding of a rabbit serum to linear peptides of protein N of SARS-CoV Urbani (Rabbit serum linear peptides) [4]: 0.2; Binding of a rabbit serum to looped/cyclic peptides of protein N of SARS-CoV Urbani (Rabbit serum looped peptides) [4]: 0.7 |
| PQSNQRSAPRITFGG | 0.8 | 0.5 | 0.6 | 0.7 | 0.3 | 0.5 | 0.2 | 0.3 | 0.2 | 0.5 | 0.1 | 0.5 | 0.6 | 0.8 | 0.6 | 0.7 | 0.4 | 0.5 | 0.3 | 0.5 | Binding of serum SARS-green to looped/cyclic peptides of protein N of SARS-CoV Urbani [2]: 0.4; Binding of serum SARS-yellow to looped/cyclic peptides of protein N of SARS-CoV Urbani [2]: 0.6; Recognition of the peptide by antibody 03-018 [3]: recognized; Recognition of the peptide by the rabbit serum [4]: also recognized |
| PRGQGVPINTNSGPD | 0.4 | 0.7 | 0.5 | 0.3 | 0.2 | 0.2 | 0.1 | 0.1 | 0.1 | 0.2 | 0.1 | 0.1 | 0.6 | 0.3 | 0.4 | 0.2 | 0.4 | 0.2 | 0.2 | 0.6 | Binding of serum SARS-green to looped/cyclic peptides of protein N of SARS-CoV Urbani [2]: 0.1; Binding of serum SARS-yellow to looped/cyclic peptides of protein N of SARS-CoV Urbani [2]: 0.1; Binding of antibody 03-018 to linear peptides of the N protein of SARS-CoV Urbani [3]: 0.1; Binding of antibody 03-018 to looped/cyclic peptides of the N protein of SARS-CoV Urbani [3]: 0.2; Binding of a rabbit serum to linear peptides of protein N of SARS-CoV Urbani (Rabbit serum linear peptides) [4]: 0.1; Binding of a rabbit serum to looped/cyclic peptides of protein N of SARS-CoV Urbani (Rabbit serum looped peptides) [4]: 0.0 |
